According to US9498479B2, “Dihydropyrimidine compounds and their application in pharmaceuticals” (SUNSHINE LAKE PHARMA CO., LTD., priority 2013, dated 2016):

The molecules below were run on HBV (assay: In-vitro anti-HBV activity in stable HBV-producing cell line (HepG2.2.15), HBV DNA in culture fluid by qPCR). Conditions: Hepatitis B virus, 168 h; HepG2.2.15 cells, HBV DNA in culture media on day 7, qPCR.
Type: cell-based
Procedure: Specific procedures are as follows:
HepG2.2.15 cells were seeded into each well of 96-well plates, 40,000 cells per well. Cells were treated with cell culture medium containing compounds with different concentrations 24 hours after cell seeding. The final concentration of each compound was 16.4 μM in each well and each compound was diluted to desired concentration using 3-fold gradient dilution protocol, 9 diluted points in duplicate. The culture mediums containing the compounds were refreshed on day 4 post cell seeding. Culture media were collected from the HepG2.2.15 plates on day 7 post cell seeding followed by HBV DNA extraction.
HBV DNA extraction: The HBV DNA extraction was performed using QIAamp 96 DNA Blood Kit (QIAGEN 51161).
PCR for quantification: PCR mix was prepared according to PCR system. PCR mix was dispensed to 96-well optical reaction plates (special for quantification). The standard diluted proportionally was added. Then the sample was added; The plates were sealed with optical adhesive film; PCR system was performed according to programs.
Percentage of HBV inhibition of DNA replication by compound was calculated using the following equation: % Inh.=[1-HBV DNA quantity of sample/HBV DNA quantity of DMSO control]*100.
Calculating EC50 value of compounds to HBV replication: the EC50 values were calculated based on “four-parameter logistic equation” and using GraphPad Prism 5 analysis software.

| SMILES | EC50 [nM] |
| --- | --- |
| COC(=O)C1=C(CN2CC(F)(F)C[C@H]2CCC(=O)O)NC(c2nccs2)=N[C@H]1c1ccc(Cl)cc1Cl [Example 16, 3-((R)-1-(((R)-6-(2,4-dichlorophenyl)-5-(methoxycarbonyl)-2-(thiazol-2-yl)-3,6-dihydropyrimidin-4-yl)methyl)-4,4-difluoropyrrolidin-2-yl)propanoic acid] | 62 |
| COC(=O)C1=C(CN2CC(F)(F)C[C@H]2CCC(=O)O)NC(c2nccs2)=N[C@H]1c1ccc(F)cc1Cl [Example 15, 3-((R)-1-(((R)-6-(2-chloro-4-fluorophenyl)-5-(methoxycarbonyl)-2-(thiazol-2-yl)-3,6-dihydropyrimidin-4-yl)methyl)-4,4-difluoropyrrolidin-2-yl)propanoic acid] | 94 |
| CCOC(=O)C1=C(CN2CC(F)(F)C[C@H]2CCC(=O)O)NC(c2nccs2)=N[C@H]1c1ccc(Cl)cc1Cl [Example 13, 3-((R)-1-(((R)-6-(2,4-dichlorophenyl)-5-(ethoxycarbonyl)-2-(thiazol-2-yl)-3,6-dihydropyrimidin-4-yl)methyl)-4,4-difluoropyrrolidin-2-yl)propanoic acid] | 64 |
| CCOC(=O)C1=C(CN2CC(F)(F)C[C@@H]2CCC(=O)O)NC(c2nccs2)=N[C@H]1c1ccc(Cl)cc1Cl [Example 21, 3-((S)-1-(((R)-6-(2,4-dichlorophenyl)-5-(ethoxycarbonyl)-2-(thiazol-2-yl)-3,6-dihydropyrimidin-4-yl)methyl)-4,4-difluoropyrrolidin-2-yl)propanoic acid] | 9 |
| COC(=O)C1=C(CN2CC(F)(F)C[C@@H]2CCC(=O)O)NC(c2nccs2)=N[C@H]1c1ccc(Cl)cc1Cl [Example 22, 3-((S)-1-(((R)-6-(2,4-dichlorophenyl)-5-(methoxycarbonyl)-2-(thiazol-2-yl)-3,6-dihydropyrimidin-4-yl)methyl)-4,4-difluoropyrrolidin-2-yl)propanoic acid] | 11 |
| COC(=O)C1=C(CN2CC(F)(F)C[C@@H]2CCC(=O)O)NC(c2nccs2)=N[C@H]1c1ccc(F)cc1Cl [Example 20, 3-((S)-1-(((R)-6-(2-chloro-4-fluorophenyl)-5-(methoxycarbonyl)-2-(thiazol-2-yl)-3,6-dihydropyrimidin-4-yl)methyl)-4,4-difluoropyrrolidin-2-yl)propanoic acid] | 17 |
| COC(=O)C1=C(CN2CC(F)(F)C[C@H]2CCC(=O)O)NC(c2nccs2)=N[C@H]1c1ccc(F)cc1Br [Example 14, 3-((R)-1-(((R)-6-(2-bromo-4-fluorophenyl)-5-(methoxycarbonyl)-2-(thiazol-2-yl)-3,6-dihydropyrimidin-4-yl)methyl)-4,4-difluoropyrrolidin-2-yl)propanoic acid] | 80 |
| CCOC(=O)C1=C(CN2CCS(=O)(=O)C[C@H]2C(=O)O)NC(c2nccs2)=N[C@H]1c1ccc(F)cc1Br [Example 2, (R)-4-(((R)-6-(2-bromo-4-fluorophenyl)-5-(ethoxycarbonyl)-2-(thiazol-2-yl)-3,6-dihydropyrimidin-4-yl)methyl)thiomorpholine-3-carboxylic acid 1,1-dioxide] | 6630 |
| CCOC(=O)C1=C(CN2CC(F)(F)C[C@@H]2CCC(=O)O)NC(c2nccs2)=N[C@H]1c1ccc(F)cc1Br [Example 17, 3-((S)-1-(((R)-6-(2-bromo-4-fluorophenyl)-5-(ethoxycarbonyl)-2-(thiazol-2-yl)-3,6-dihydropyrimidin-4-yl)methyl)-4,4-difluoropyrrolidin-2-yl)propanoic acid] | 12 |
| CCOC(=O)C1=C(CN2CC(F)(F)C[C@H]2CCC(=O)O)NC(c2nccn2C)=NC1c1ccc(F)cc1Br (stereo partly drawn) [Example 7, 3-((2R)-1-((6-(2-bromo-4-fluorophenyl)-5-(ethoxycarbonyl)-2-(1-methyl-1H-imidazol-2-yl)-3,6-dihydropyrimidin-4-yl)methyl)-4,4-difluoropyrrolidin-2-yl)propanoic acid] | 65 |
| CCOC(=O)C1=C(CN2CC(F)(F)C[C@@H]2CCC(=O)O)NC(c2nccs2)=N[C@H]1c1ccc(F)cc1Cl [Example 19, 3-((S)-1-(((R)-6-(2-chloro-4-fluorophenyl)-5-(ethoxycarbonyl)-2-(thiazol-2-yl)-3,6-dihydropyrimidin-4-yl)methyl)-4,4-difluoropyrrolidin-2-yl)propanoic acid] | 20 |
| CCOC(=O)C1=C(CN2CC(F)(F)C[C@H]2CCC(=O)O)NC(c2nccs2)=N[C@H]1c1ccc(F)cc1Cl [Example 12, 3-((R)-1-(((R)-6-(2-chloro-4-fluorophenyl)-5-(ethoxycarbonyl)-2-(thiazol-2-yl)-3,6-dihydropyrimidin-4-yl)methyl)-4,4-difluoropyrrolidin-2-yl)propanoic acid] | 98 |
| COC(=O)C1=C(CN2CC(F)(F)C[C@@H]2CCC(=O)O)NC(c2nccs2)=N[C@H]1c1ccc(F)cc1Br [Example 18, 3-((S)-1-(((R)-6-(2-bromo-4-fluorophenyl)-5-(methoxycarbonyl)-2-(thiazol-2-yl)-3,6-dihydropyrimidin-4-yl)methyl)-4,4-difluoropyrrolidin-2-yl)propanoic acid] | 14 |
